This note sets out measurements from PubChem BioAssay AID1996.

Molecules are shown by their SMILES. In brackets after ≈: the same amount, converted by molar mass. A value given as a limit tells only on which side of the number the result lay.

For this series the following is noted: buffer; pH 7.4; 200.0 µM.
With `CCOc1ccc(C(=O)Nc2nc(C)c(C(=O)OC)s2)cc1`, the solubility (kinetic) is less than 0.3 µg/mL.
Compound `O=C(/C=C/NCc1cccnc1)C(F)(F)C(F)(F)F` registered a solubility (kinetic) of more than 42 µg/mL.
In turn, `Cc1cc(/C=C(\C#N)C(=O)N2CCCCC2)cc(C)c1O` registered a solubility (kinetic) of more than 42.7 µg/mL.
The value for `Cc1ccc(CCNC(=O)CNC(=O)c2cccs2)cc1` was 40.3 µg/mL (≈ 133 µM); that for `Cc1nc(NC(=O)CCl)sc1C(=O)N(C)C` was more than 39.3 µg/mL; that for `O=C(CCOc1ccccc1)N1CCN(c2ccc(O)cc2)CC1` was more than 49 µg/mL.
The value for `O=C(c1cccc(C(F)(F)F)c1)N1CCOc2ccccc21` was 37.5 µg/mL (≈ 122 µM).
`CC(=O)c1ccc(NCCC(=O)c2ccccc2)cc1`: the kinetic solubility is less than 0.6 µg/mL.
Under `CCCOc1ccc(C2=CSC3=NCCN23)cc1.Cl` stands 37.4 µg/mL; under `O=C(COC(=O)C1CC1)Nc1ccc(S(=O)(=O)N2CCOCC2)cc1`, more than 55.3 µg/mL.
The value for `COc1ccc(CSCC(=O)Nc2ccccc2)cc1[N+](=O)[O-]` was more than 49.9 µg/mL.
`NC(=S)C(c1ccccc1)c1ncc(C(F)(F)F)cc1Cl` (stereo not drawn) displayed a kinetic solubility of 41.7 µg/mL (≈ 126 µM).
Under `C=CCn1c(=O)c2ccccc2n2c(SCC(=O)N(C)C)nnc12` stands more than 51.5 µg/mL; under `CC1(C)CC(NC(=O)Cc2ccc(Cl)cc2)CC(C)(C)N1`, more than 46.3 µg/mL; under `O=C(/C=C\c1ccc2c(c1)OCO2)CC1(O)C(=O)Nc2ccccc21` (stereo not drawn), 24.6 µg/mL (≈ 72.9 µM).
`Cc1ccccc1CNC(=O)CN1C(=O)c2ccccc2S1(=O)=O` showed a kinetic solubility of 11.2 µg/mL (≈ 32.5 µM). This solubility kinetic is about 2.2-fold lower than that of the compound before.
The value for `N/C(=N\OC(=O)c1cccc(Br)c1)c1ccc([N+](=O)[O-])cc1` was 1.4 µg/mL (≈ 3.84 µM); that for `O=C(NCCNC(=O)c1ccco1)c1ccco1` was 30.5 µg/mL (≈ 123 µM); that for `CCOc1cc(S(=O)(=O)NCC2CCCO2)ccc1F` (stereo not drawn) was more than 45.5 µg/mL.
For the compound `CCOC(=O)C1(Cc2ccccc2)C(=O)Nc2ccccc21` (stereo not drawn), the kinetic solubility came out at 37.1 µg/mL (≈ 126 µM).
Under `CC(C)/C=C1\CCc2c([nH]c3ccccc23)C1=O` stands 1.5 µg/mL (≈ 6.27 µM); under `O=C(O)CCSc1nc2ccccc2n1Cc1ccccc1`, 43.7 µg/mL (≈ 140 µM).
The value for `CCOC(=O)N1CCC(NS(=O)(=O)c2ccc(C)cc2)CC1` was more than 49 µg/mL.
The value for `COc1ccccc1NC(=O)c1ccc([N+](=O)[O-])o1` was 36.8 µg/mL (≈ 140 µM).
For the compound `Cc1cccc(N2CCN(Cc3nc(C4CC4)no3)CC2)n1`, the solubility (kinetic) is 37.8 µg/mL (≈ 126 µM).
In turn, `CN(C)CCCNC(=O)c1cc(C(=O)Cc2ccccc2)c[nH]1` showed a kinetic solubility of more than 47 µg/mL.
`COc1cccc(NC(=O)c2nc(SC)ncc2Cl)c1` showed a kinetic solubility of 2.4 µg/mL (≈ 7.75 µM).
Under `CC(=O)NC1CC2CCCC(C1)N2Cc1ccc(C)cc1` (stereo not drawn) stands more than 43 µg/mL.
The value for `Cc1cc(C)nc(-n2ncc3c2CC(C)CC3=O)n1` (stereo not drawn) was more than 38.4 µg/mL; that for `N#C/C(=C\N1CCCCC1)S(=O)(=O)c1ccc(Cl)cc1` was 8.2 µg/mL (≈ 26.4 µM).
The value for `O=C(Nc1ccccc1)c1ccccc1C(=O)N1CCCCC1` was 42.6 µg/mL (≈ 138 µM); that for `O=C(CCCN1C(=O)/C(=C/c2ccccc2OC(F)F)SC1=S)Nc1cccnc1` was 4.5 µg/mL (≈ 10 µM); that for `Cc1nnc(SCC(=O)N(C)CC(=O)Nc2ccccc2Cl)s1` was more than 55.6 µg/mL.
The compound `N#Cc1ccc(OCC(=O)N2CCc3ccccc32)cc1` registered a kinetic solubility of 1.8 µg/mL (≈ 6.47 µM).
The compound `O=C(CSc1nncn1-c1ccccc1)NC1CCCC1` showed a solubility (kinetic) of more than 45.4 µg/mL.
The value for `COc1cc2c(cc1OC)-c1cc(Nc3cccc(C)c3)nc(=O)n1CC2` was 2.5 µg/mL (≈ 6.88 µM); that for `CC(=O)N/C(=C\c1ccccc1)C(=O)OCC(=O)c1c(N)n(C)c(=O)n(C)c1=O` was 18.2 µg/mL (≈ 45.5 µM).
The value for `O=C(Nc1ccc2c(c1)OCCO2)c1cccc(Br)c1` was 3.2 µg/mL (≈ 9.58 µM); that for `Cc1cnc(NC(=O)Cc2ccc(C)c(C)c2)s1` was 2 µg/mL (≈ 7.68 µM).
Under `Cc1ccccc1S(=O)(=O)NC(=NCc1ccc(F)cc1)c1ccccc1` stands 34.1 µg/mL (≈ 89.2 µM).
In turn, `O=C1S/C(=C\c2cccs2)C(=O)N1c1ccc(O)cc1` returned a solubility (kinetic) of less than 0.6 µg/mL.
Under `CN(C)CCOc1cccc(Br)c1.O=C(O)C(=O)O` stands 44.6 µg/mL; under `CC(Oc1ccc(F)cc1)C(=O)N1CCN(c2ncccn2)CC1` (stereo not drawn), more than 49.6 µg/mL; under `CN(CCO)CC(O)CN(c1ccccc1)c1ccccc1.Cl` (stereo not drawn), 49.9 µg/mL.
In the case of `NS(=O)(=O)c1ccc(-n2cccc2C=O)cc1`, the kinetic solubility amounted to 36.1 µg/mL (≈ 144 µM).
`COc1ccccc1NC(=O)COC(=O)/C=C/c1cccs1` came in with a kinetic solubility of 4.4 µg/mL (≈ 13.9 µM). This solubility kinetic is about 8.2-fold lower than that of the compound before.
Take `CC1CN(S(=O)(=O)c2cccc(C(=O)NCc3ccccn3)c2)CC(C)O1` (stereo not drawn): the kinetic solubility is more than 58.4 µg/mL.
The value for `Fc1ccc(-c2csc(-c3ccncc3)n2)cc1` was 1.3 µg/mL (≈ 5.07 µM); that for `COc1ccc(CN2C(=O)COc3ccccc32)cc1` was 34.1 µg/mL (≈ 127 µM); that for `CNC(=O)c1cc(C(=O)c2ccc(C(F)(F)F)cc2)c[nH]1` was 1.8 µg/mL (≈ 6.08 µM).
The value for `Clc1ccccc1Nc1nc(-c2ccncc2)nc2ccccc12` was 0.8 µg/mL (≈ 2.4 µM); that for `CCOc1ccc2[nH]c3c(NCCc4ccc(OC)c(OC)c4)ncnc3c2c1` was 5.9 µg/mL (≈ 15 µM).
Under `O=C(NC1CC1)c1cc(=S)[nH]c2ccccc12` stands more than 36.6 µg/mL; under `Cn1c(=O)c2c([nH]c(=O)n2C)n(Cc2ccccc2)c1=O`, more than 42.9 µg/mL.
In turn, `CC(=O)Nc1ccc(-c2cc(C(=O)O)c3ccccc3n2)cc1` gave a solubility (kinetic) of 42.8 µg/mL (≈ 140 µM).
In turn, `Cc1cc(OCC(=O)NC2CC2)c2c(C)cc(=O)oc2c1` had a solubility (kinetic) of more than 43.1 µg/mL.
Consider `Cc1ccc(SCC(=O)N2CCC(C(N)=O)CC2)cc1`, for which the kinetic solubility was more than 43.9 µg/mL.
As for `Cc1nc2ccccc2n1Cc1ccc(Cl)cc1`, the solubility (kinetic) stood at 24.9 µg/mL (≈ 97 µM).
As to `Cc1csc(=O)n1CC(=O)OCC(=O)NCc1ccccc1`, the kinetic solubility was more than 48.1 µg/mL.
With `CN(C)C(=O)CSc1nc2ccc(N3C(=O)c4ccccc4C3=O)cc2s1`, the kinetic solubility stood at 3.1 µg/mL (≈ 7.8 µM).
`O=[N+]([O-])c1ccc(NC(=S)NCc2ccc(F)cc2)cc1` displayed a solubility (kinetic) of 4.5 µg/mL (≈ 14.7 µM).
The compound `CCOCC(=O)Nc1ccc(S(=O)(=O)NCC2CCCO2)cc1` (stereo not drawn) showed a kinetic solubility of more than 51.4 µg/mL.
Turning to `CCn1c(N)c(Br)c(=O)[nH]c1=O`, the kinetic solubility is more than 35.1 µg/mL.
Under `Cc1cccc(NC(=O)C(=O)NCc2ccc3c(c2)OCO3)c1C` stands 2 µg/mL (≈ 6.13 µM); under `COc1cnc(-c2ccccn2)nc1Oc1cccc(C(F)(F)F)c1`, 37.4 µg/mL (≈ 108 µM); under `Cc1cc(C)cc(N2CC(C(=O)Nc3cc(C)on3)CC2=O)c1` (stereo not drawn), 6.7 µg/mL (≈ 21.4 µM).
In turn, `Cc1ccc(NC(=O)CCCNC(=O)c2ccc(Cl)cc2)c(O)c1` registered a solubility (kinetic) of 13.1 µg/mL (≈ 37.8 µM).
Under `COc1ccc(CNC(=O)CN2C(=O)NC3(CCCCCC3)C2=O)cc1` stands more than 53.9 µg/mL; under `O=c1cc(-c2ccccc2)nc(SCc2ccccc2F)[nH]1`, less than 0.3 µg/mL.
Under `CC(NC(=O)C(=O)NCc1cccs1)c1ccccc1` (stereo not drawn) stands 2.5 µg/mL (≈ 8.67 µM); under `COc1ccc(-c2noc(CN(C)C(=O)c3ccoc3C)n2)cc1`, 40.6 µg/mL (≈ 124 µM).
With `O=C(COC(=O)c1cnccn1)Nc1cccc(F)c1`, the kinetic solubility was more than 41.3 µg/mL.
The value for `O=C1N/C(=N\c2ccccn2)SC1Cc1ccccc1Cl` (stereo not drawn) was less than 0.2 µg/mL; that for `C=CCSc1nsc(NC(=O)Nc2ccc(F)cc2)n1` was 1.2 µg/mL (≈ 3.87 µM); that for `CC(C)N1CCN(Cc2ccc3c(c2)OCCO3)CC1CCO` (stereo not drawn) was 45.5 µg/mL (≈ 142 µM).
As for `O=C(COC(=O)C12CC3CC(CC(Br)(C3)C1)C2)Nc1c(F)cccc1F`, the kinetic solubility is 16.1 µg/mL (≈ 37.6 µM).
Under `CC1CCCC(NC(=O)COC(=O)/C=C/c2ccc(F)cc2)C1C` (stereo not drawn) stands 3.3 µg/mL (≈ 9.9 µM); under `Cc1ccc(OCCOC(=O)c2c(-c3ccccc3)noc2C)cc1`, less than 0.7 µg/mL.
As for `CCCCOc1ccc(C2(C)NC(=O)N(C)C2=O)cc1` (stereo not drawn), the solubility (kinetic) is more than 41.5 µg/mL.
The value for `O=C(COC(=O)CSc1ccccc1)Nc1ccc(F)cc1F` was more than 50.6 µg/mL.
For `Cc1onc(-c2c(F)cccc2Cl)c1C(=O)c1ccc(F)cc1`, the solubility (kinetic) came to 9.1 µg/mL (≈ 27.3 µM).
Under `C=CCn1cnnc1SCC(=O)N(C1CCCCC1)C1CCS(=O)(=O)C1` (stereo not drawn) stands more than 59.8 µg/mL.
The value for `O=C(COC(=O)c1ccc[n+]([O-])c1)Nc1ccccc1OC(F)F` was more than 50.7 µg/mL; that for `NC(=O)C1CCN(C(=O)COc2ccc3c4c(c(=O)oc3c2)CCCC4)CC1` was more than 57.7 µg/mL; that for `COc1ccc(CN(C)CC(=O)NC(=O)NC2CCCCC2)cc1` was more than 50 µg/mL.
Under `CCN(C(=O)CSc1nc2ccc(C)cc2[nH]1)C1CCS(=O)(=O)C1` (stereo not drawn) stands more than 55.1 µg/mL.
`Cc1ccccc1-c1nnc(SCC(=O)N2CCCC2)o1` returned a solubility (kinetic) of more than 45.5 µg/mL.
The value for `Cc1nc(SCc2cccc(C(=O)O)c2)nc2c1CCCC2` was more than 47.2 µg/mL; that for `CC(C)CNS(=O)(=O)c1cc(C(=O)O)c(Cl)cc1Cl` was more than 48.9 µg/mL; that for `Cc1cc(NC(=S)Nc2cccnc2)ccc1Br` was 40.7 µg/mL (≈ 126 µM).
Turning to `CCOC(=O)C1C(CC)NC(=S)NC1(C)O` (stereo not drawn), the solubility (kinetic) was 35 µg/mL (≈ 142 µM). This solubility kinetic and that of the compound before are within 1.5-fold of each other.
The value for `CC(=O)c1ccc(NC(=S)NCC(c2ccco2)N2CCCC2)cc1` (stereo not drawn) was 52.5 µg/mL (≈ 147 µM).
The value for `COc1cc(OC)c(NC(=O)Cc2cccs2)cc1Cl` was 32.1 µg/mL (≈ 103 µM); that for `CCCCN(C(=O)C1CCC1)c1c(N)n(CCC)c(=O)[nH]c1=O` was more than 48.4 µg/mL; that for `CN1CCCN(C(=O)c2ccc(Br)cc2)CC1` was 41.4 µg/mL (≈ 139 µM).
The value for `O=C1CN=C(c2ccccc2)c2cc([N+](=O)[O-])ccc2N1` was more than 42.2 µg/mL; that for `CCOC(=O)c1sc(=S)n(-c2ccccc2)c1C` was 3.4 µg/mL (≈ 12.2 µM).
`COc1ccc(NC(=O)CN2CC(C)OC(C)C2)cc1Cl` (stereo not drawn) registered a kinetic solubility of 43 µg/mL (≈ 137 µM).
As to `COc1ccc(NC(=O)CCCc2ccccc2)cc1OC`, the solubility (kinetic) came to 29.2 µg/mL (≈ 97.5 µM).
Under `COc1ccc(-c2csc(-c3ccccc3)n2)c(OC)c1` stands 3.3 µg/mL (≈ 11.1 µM).
`CC(=O)c1c(C)[nH]c(C(=O)N2CCCC(C)C2)c1C` (stereo not drawn): the solubility (kinetic) is more than 39.4 µg/mL.
The value for `O=C(CCNS(=O)(=O)c1ccccc1F)OCc1ccccc1Cl` was 34.5 µg/mL (≈ 92.8 µM).
The value for `COc1ccc(OCC(=O)N2CCc3ccccc3C2)cc1` was 29.8 µg/mL (≈ 100 µM).
